Assay results as given in article PMC10682951, “Structure-function and rational design of a spider toxin Ssp1a at human voltage-gated sodium channel subtypes” (Frontiers in Pharmacology, 2023).
Bridge positions count the residues as written; N and C are the ends. Peptide text beside a SMILES is read from it.

Assays:
Type in all cases: cell-based
hNaV1.2 = target: T1, hNaV1.2 (Homo sapiens, UniProt Q99250); test: Automated whole-cell patch-clamp (QPatch 16X), hNaV1.2; settings: for IC50: HEK293 cells expressing hNaV1.2 + β1 subunit, QPatch 16X, holding −80 mV, step to 0 mV, peptide incubated 2 min, 0.1% BSA, mean, SEM and n (2-7); for Loss (reduction) in potency vs rSsp1a at hNaV1.2: relative to wild type rSsp1a
T1 construct: host or cells: HEK293
T1 sequence (Q07699 19-218): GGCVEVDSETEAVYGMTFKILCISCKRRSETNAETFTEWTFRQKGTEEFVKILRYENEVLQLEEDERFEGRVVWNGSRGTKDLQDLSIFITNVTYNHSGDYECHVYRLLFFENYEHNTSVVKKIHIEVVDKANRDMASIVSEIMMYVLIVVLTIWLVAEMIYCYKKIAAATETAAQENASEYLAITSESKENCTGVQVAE
T1 sequence (Q99250 whole entry): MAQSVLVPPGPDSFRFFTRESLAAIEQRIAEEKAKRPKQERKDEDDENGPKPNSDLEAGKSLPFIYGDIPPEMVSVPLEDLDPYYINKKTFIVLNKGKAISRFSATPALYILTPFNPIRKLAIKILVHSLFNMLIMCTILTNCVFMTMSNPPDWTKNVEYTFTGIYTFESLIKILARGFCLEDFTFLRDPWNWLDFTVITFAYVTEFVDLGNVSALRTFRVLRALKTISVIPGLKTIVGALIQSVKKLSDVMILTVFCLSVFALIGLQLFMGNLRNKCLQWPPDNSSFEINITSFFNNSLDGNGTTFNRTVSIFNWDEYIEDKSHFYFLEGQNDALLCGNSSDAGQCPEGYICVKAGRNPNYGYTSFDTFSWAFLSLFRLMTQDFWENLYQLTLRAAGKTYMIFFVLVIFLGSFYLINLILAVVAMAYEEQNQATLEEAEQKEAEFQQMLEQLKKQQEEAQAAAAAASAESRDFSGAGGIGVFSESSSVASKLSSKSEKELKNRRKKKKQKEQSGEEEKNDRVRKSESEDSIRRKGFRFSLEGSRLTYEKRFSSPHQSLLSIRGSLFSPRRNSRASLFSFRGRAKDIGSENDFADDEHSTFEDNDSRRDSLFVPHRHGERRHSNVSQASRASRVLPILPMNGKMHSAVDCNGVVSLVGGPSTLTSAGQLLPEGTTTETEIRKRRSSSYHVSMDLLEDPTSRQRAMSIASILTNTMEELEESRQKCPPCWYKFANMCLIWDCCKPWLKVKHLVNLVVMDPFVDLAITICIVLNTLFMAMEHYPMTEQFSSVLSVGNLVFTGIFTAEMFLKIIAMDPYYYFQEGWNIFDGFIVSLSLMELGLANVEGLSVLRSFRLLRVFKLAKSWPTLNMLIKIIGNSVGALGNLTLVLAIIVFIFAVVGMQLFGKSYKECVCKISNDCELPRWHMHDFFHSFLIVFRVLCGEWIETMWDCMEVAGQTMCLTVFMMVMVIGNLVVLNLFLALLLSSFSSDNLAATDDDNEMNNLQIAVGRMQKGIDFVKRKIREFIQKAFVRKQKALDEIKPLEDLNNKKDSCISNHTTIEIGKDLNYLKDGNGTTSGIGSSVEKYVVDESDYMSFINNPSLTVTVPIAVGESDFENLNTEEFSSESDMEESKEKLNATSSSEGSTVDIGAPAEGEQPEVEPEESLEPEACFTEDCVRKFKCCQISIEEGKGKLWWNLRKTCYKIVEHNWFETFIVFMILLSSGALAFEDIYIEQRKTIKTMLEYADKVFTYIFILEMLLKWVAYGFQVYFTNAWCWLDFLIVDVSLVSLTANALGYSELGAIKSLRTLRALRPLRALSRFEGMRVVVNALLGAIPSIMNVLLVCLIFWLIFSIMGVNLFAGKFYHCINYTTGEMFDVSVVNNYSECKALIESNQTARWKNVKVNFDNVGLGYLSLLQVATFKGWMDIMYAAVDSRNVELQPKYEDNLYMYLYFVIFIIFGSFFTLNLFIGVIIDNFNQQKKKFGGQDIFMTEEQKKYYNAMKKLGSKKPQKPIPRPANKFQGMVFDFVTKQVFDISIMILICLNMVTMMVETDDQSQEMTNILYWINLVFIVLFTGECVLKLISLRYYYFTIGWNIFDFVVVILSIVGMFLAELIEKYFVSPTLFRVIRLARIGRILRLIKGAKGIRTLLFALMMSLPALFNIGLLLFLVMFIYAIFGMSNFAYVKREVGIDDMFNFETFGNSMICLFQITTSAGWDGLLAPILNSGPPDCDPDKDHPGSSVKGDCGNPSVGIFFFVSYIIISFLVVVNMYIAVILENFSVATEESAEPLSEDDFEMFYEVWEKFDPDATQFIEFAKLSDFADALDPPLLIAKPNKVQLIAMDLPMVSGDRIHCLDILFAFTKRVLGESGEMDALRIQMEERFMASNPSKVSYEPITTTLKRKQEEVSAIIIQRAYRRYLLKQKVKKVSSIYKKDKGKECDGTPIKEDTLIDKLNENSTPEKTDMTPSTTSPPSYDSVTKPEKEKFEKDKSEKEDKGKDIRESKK
Outline: (§1)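 HEK293 cells stably expressing the channel (human subtypes with β1 subunit), held at −80 mV; 2 min peptide pre-incubation, then 20 ms steps to 0 mV after a 200 ms −120 mV conditioning pulse. Extracellular pH 7.3 with 20 mM TEA-Cl, CsF-based pipette solution, 0.1% BSA; IC50 from four-parameter Hill fit.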

hNaV1.3 = target: T2, hNaV1.3 (Homo sapiens, UniProt Q9NY46); test: Automated whole-cell patch-clamp (QPatch 16X), hNaV1.3; settings: for IC50: HEK293 cells expressing hNaV1.3 + β1 subunit, QPatch 16X, holding −80 mV, step to 0 mV, peptide incubated 2 min, 0.1% BSA, mean, SEM and n (3-12)
T2 construct: host or cells: HEK293
T2 sequence (Q9NY46 whole entry): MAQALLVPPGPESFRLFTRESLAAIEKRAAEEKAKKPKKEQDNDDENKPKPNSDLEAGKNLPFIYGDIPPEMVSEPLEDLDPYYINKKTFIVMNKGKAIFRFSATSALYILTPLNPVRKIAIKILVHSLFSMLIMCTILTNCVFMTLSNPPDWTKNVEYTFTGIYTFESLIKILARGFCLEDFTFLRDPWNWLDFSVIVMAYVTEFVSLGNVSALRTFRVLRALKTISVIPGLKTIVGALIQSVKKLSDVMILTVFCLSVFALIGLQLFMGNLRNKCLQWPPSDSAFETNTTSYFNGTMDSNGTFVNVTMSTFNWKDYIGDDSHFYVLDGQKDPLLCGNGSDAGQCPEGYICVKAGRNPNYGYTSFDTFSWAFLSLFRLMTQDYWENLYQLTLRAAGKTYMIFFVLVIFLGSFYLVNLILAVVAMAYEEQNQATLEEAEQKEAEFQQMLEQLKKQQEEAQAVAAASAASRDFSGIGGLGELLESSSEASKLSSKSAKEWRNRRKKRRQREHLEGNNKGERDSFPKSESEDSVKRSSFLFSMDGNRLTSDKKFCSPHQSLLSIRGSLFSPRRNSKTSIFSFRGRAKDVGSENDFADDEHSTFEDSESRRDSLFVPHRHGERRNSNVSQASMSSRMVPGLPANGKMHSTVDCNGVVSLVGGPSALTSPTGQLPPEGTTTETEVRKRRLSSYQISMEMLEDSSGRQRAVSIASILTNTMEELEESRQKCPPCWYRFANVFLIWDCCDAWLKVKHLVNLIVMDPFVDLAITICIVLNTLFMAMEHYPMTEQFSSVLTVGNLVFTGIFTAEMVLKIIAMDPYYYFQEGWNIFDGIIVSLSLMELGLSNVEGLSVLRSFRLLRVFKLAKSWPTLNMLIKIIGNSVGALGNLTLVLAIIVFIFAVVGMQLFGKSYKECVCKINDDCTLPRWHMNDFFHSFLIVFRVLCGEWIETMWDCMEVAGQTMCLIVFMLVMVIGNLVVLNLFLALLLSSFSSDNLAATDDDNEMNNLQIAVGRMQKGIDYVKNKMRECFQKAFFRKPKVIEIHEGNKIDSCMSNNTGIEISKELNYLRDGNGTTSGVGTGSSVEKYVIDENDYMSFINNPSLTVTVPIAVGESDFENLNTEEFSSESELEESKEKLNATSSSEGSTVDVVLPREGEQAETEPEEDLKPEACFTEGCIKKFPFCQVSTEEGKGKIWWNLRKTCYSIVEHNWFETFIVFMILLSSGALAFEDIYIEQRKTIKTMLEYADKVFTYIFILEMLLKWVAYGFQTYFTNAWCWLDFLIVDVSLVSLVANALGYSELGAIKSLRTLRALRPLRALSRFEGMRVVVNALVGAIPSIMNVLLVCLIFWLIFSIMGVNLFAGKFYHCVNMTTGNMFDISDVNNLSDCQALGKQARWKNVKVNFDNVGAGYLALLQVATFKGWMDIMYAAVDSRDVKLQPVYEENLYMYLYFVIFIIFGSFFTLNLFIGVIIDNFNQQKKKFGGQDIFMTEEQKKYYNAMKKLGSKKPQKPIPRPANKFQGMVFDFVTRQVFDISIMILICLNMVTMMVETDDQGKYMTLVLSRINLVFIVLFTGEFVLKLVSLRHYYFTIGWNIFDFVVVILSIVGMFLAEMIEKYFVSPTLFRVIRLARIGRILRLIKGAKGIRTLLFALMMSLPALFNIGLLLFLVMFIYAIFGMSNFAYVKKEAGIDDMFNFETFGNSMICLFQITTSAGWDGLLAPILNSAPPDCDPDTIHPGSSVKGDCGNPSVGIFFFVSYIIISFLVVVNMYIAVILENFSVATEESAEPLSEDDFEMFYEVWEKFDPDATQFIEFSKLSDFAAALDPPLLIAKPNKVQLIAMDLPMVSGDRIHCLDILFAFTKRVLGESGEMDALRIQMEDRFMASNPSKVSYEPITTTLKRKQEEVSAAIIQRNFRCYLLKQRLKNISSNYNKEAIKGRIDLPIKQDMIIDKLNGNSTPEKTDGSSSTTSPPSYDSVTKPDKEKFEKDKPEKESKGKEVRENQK
T2 sequence (Q07699 19-218, further chain): as the sequence (Q07699 19-218) above
Outline: as §1

hNaV1.7 = target: T3, hNaV1.7 (Homo sapiens, UniProt Q15858); test: Automated whole-cell patch-clamp (QPatch 16X), hNaV1.7; settings: for IC50: HEK293 cells expressing hNaV1.7 + β1 subunit, QPatch 16X, holding −80 mV, step to 0 mV, peptide incubated 2 min, 0.1% BSA, mean, SEM and n (3-9); for Loss (reduction) in potency vs rSsp1a at hNaV1.7: relative to wild type rSsp1a
T3 construct: host or cells: HEK293
Outline: as §1

Row | SMILES | IC50 (hNaV1.2) | IC50 (hNaV1.3) | IC50 (hNaV1.7) | Loss (reduction) in potency vs rSsp1a at hNaV1.2 (hNaV1.2) | Loss (reduction) in potency vs rSsp1a at hNaV1.7 (hNaV1.7) | inhibition at 3 µM (hNaV1.2; 3 µM peptide, QPatch, partial inhibition) | inhibition at 3 µM (hNaV1.3; 3 µM peptide, QPatch, read-out: Inhibition (block) of hNaV1.3 at 3 µM) | inhibition at 3 µM (hNaV1.7; 3 µM peptide, QPatch)
1 | CC(C)C[C@H](NC(=O)[C@H](CC(=O)O)NC(=O)[C@H](Cc1ccc(O)cc1)NC(=O)[C@H](CCCNC(=N)N)NC(=O)[C@@H]1CSSC[C@@H]2NC(=O)[C@H](CCCCN)NC(=O)[C@H](CC(N)=O)NC(=O)[C@H](CC(N)=O)NC(=O)[C@H](CC(N)=O)NC(=O)[C@@H]3CCCN3C(=O)[C@H](CC(=O)O)NC(=O)[C@@H]3CSSC[C@H](NC(=O)[C@H](C(C)C)NC(=O)[C@H](Cc4ccc(O)cc4)NC(=O)CNC(=O)[C@H](CCC(=O)O)NC(=O)[C@H](CSSC[C@H](NC(=O)[C@H](CC(=O)O)NC(=O)CN)C(=O)N[C@@H](CC(C)C)C(=O)NCC(=O)N[C@@H](Cc4c[nH]c5ccccc45)C(=O)N[C@@H](Cc4ccccc4)C(=O)N[C@@H](CCCCN)C(=O)NCC(=O)N3)NC2=O)C(=O)N[C@@H](Cc2c[nH]cn2)C(=O)N[C@@H](Cc2c[nH]c3ccccc23)C(=O)N[C@@H](CCCCN)C(=O)N[C@@H](Cc2ccc(O)cc2)C(=O)N2CCC[C@H]2C(=O)N[C@@H](Cc2c[nH]c3ccccc23)C(=O)N1)C(=O)O [S7K] | 201 nM | 929 nM | 181 nM | – | – | – | – | –
2 | CC(C)C[C@H](NC(=O)[C@H](CC(=O)O)NC(=O)[C@H](Cc1ccc(O)cc1)NC(=O)[C@H](CCCNC(=N)N)NC(=O)[C@@H]1CSSC[C@@H]2NC(=O)[C@H](CCCCN)NC(=O)[C@H](CC(N)=O)NC(=O)[C@H](CC(N)=O)NC(=O)[C@H](CC(N)=O)NC(=O)[C@@H]3CCCN3C(=O)[C@H](CC(=O)O)NC(=O)[C@@H]3CSSC[C@H](NC(=O)[C@H](C(C)C)NC(=O)[C@H](Cc4ccc(O)cc4)NC(=O)CNC(=O)[C@H](CCC(=O)O)NC(=O)[C@H](CSSC[C@H](NC(=O)[C@H](CC(=O)O)NC(=O)CN)C(=O)N[C@@H](CC(C)C)C(=O)NCC(=O)N[C@@H](Cc4c[nH]c5ccccc45)C(=O)N[C@@H](Cc4ccccc4)C(=O)N[C@@H](CCCNC(=N)N)C(=O)NCC(=O)N3)NC2=O)C(=O)N[C@@H](Cc2c[nH]cn2)C(=O)N[C@@H](Cc2c[nH]c3ccccc23)C(=O)N[C@@H](CCCCN)C(=O)N[C@@H](Cc2ccc(O)cc2)C(=O)N2CCC[C@H]2C(=O)N[C@@H](Cc2c[nH]c3ccccc23)C(=O)N1)C(=O)O [S7R] | 153 nM | 333 nM | 94 nM | – | – | – | – | –
3 | CC(C)C[C@H](NC(=O)[C@H](CC(=O)O)NC(=O)[C@H](Cc1ccc(O)cc1)NC(=O)[C@H](CCCNC(=N)N)NC(=O)[C@@H]1CSSC[C@@H]2NC(=O)[C@H](CCCCN)NC(=O)[C@H](CC(N)=O)NC(=O)[C@H](CC(N)=O)NC(=O)[C@H](CC(N)=O)NC(=O)[C@@H]3CCCN3C(=O)[C@H](CC(=O)O)NC(=O)[C@@H]3CSSC[C@H](NC(=O)[C@H](C(C)C)NC(=O)[C@H](Cc4ccc(O)cc4)NC(=O)CNC(=O)[C@H](CCC(=O)O)NC(=O)[C@H](CSSC[C@H](NC(=O)[C@H](CC(=O)O)NC(=O)CN)C(=O)N[C@@H](CC(C)C)C(=O)NCC(=O)N[C@@H](C)C(=O)N[C@@H](Cc4ccccc4)C(=O)N[C@@H](CO)C(=O)NCC(=O)N3)NC2=O)C(=O)N[C@@H](Cc2c[nH]cn2)C(=O)N[C@@H](Cc2c[nH]c3ccccc23)C(=O)N[C@@H](CCCCN)C(=O)N[C@@H](Cc2ccc(O)cc2)C(=O)N2CCC[C@H]2C(=O)N[C@@H](Cc2c[nH]c3ccccc23)C(=O)N1)C(=O)O [W5A] (H-GDCLGAFSGCDPNNNKCCEGYVCHWKYPWCRYDL-OH; disulfide 3-18, 10-23, 17-30 (inferred); N-terminus and C-terminus assumed) | > 1000 nM | > 1000 nM | > 1000 nM | ≥ 10 fold | ≥ 10 fold | – | – | –
4 | CC(C)C[C@H](NC(=O)[C@H](CC(=O)O)NC(=O)[C@H](Cc1ccc(O)cc1)NC(=O)[C@H](CCCNC(=N)N)NC(=O)[C@@H]1CSSC[C@@H]2NC(=O)[C@H](CCCCN)NC(=O)[C@H](CC(=O)O)NC(=O)[C@H](CC(N)=O)NC(=O)[C@H](CC(N)=O)NC(=O)[C@@H]3CCCN3C(=O)[C@H](CC(=O)O)NC(=O)[C@@H]3CSSC[C@H](NC(=O)[C@H](C(C)C)NC(=O)[C@H](Cc4ccc(O)cc4)NC(=O)CNC(=O)[C@H](CCC(=O)O)NC(=O)[C@H](CSSC[C@H](NC(=O)[C@H](CC(=O)O)NC(=O)CN)C(=O)N[C@@H](CC(C)C)C(=O)NCC(=O)N[C@@H](Cc4ccccc4)C(=O)N[C@@H](Cc4ccccc4)C(=O)N[C@@H](CO)C(=O)NCC(=O)N3)NC2=O)C(=O)N[C@@H](Cc2c[nH]cn2)C(=O)N[C@@H](Cc2c[nH]c3ccccc23)C(=O)N[C@@H](CCCCN)C(=O)N[C@@H](Cc2ccc(O)cc2)C(=O)N2CCC[C@H]2C(=O)N[C@@H](Cc2c[nH]c3ccccc23)C(=O)N1)C(=O)O [W5F/N14D] (H-GDCLGFFSGCDPNNDKCCEGYVCHWKYPWCRYDL-OH; disulfide 3-18, 10-23, 17-30) | 735 nM | 1200 nM | 391 nM | – | – | – | – | –
5 | CC(C)C[C@H](NC(=O)[C@H](CC(=O)O)NC(=O)[C@H](Cc1ccc(O)cc1)NC(=O)[C@H](CCCNC(=N)N)NC(=O)[C@@H]1CSSC[C@@H]2NC(=O)[C@H](CCCCN)NC(=O)[C@H](CC(N)=O)NC(=O)[C@H](CC(N)=O)NC(=O)[C@H](CC(N)=O)NC(=O)[C@@H]3CCCN3C(=O)[C@H](CC(=O)O)NC(=O)[C@@H]3CSSC[C@H](NC(=O)[C@H](C(C)C)NC(=O)[C@H](Cc4ccc(O)cc4)NC(=O)CNC(=O)[C@H](CCC(=O)O)NC(=O)[C@H](CSSC[C@H](NC(=O)[C@H](CC(=O)O)NC(=O)CN)C(=O)N[C@@H](CC(C)C)C(=O)NCC(=O)N[C@@H](Cc4ccccc4)C(=O)N[C@@H](Cc4ccccc4)C(=O)N[C@@H](CO)C(=O)NCC(=O)N3)NC2=O)C(=O)N[C@@H](Cc2c[nH]cn2)C(=O)N[C@@H](Cc2c[nH]c3ccccc23)C(=O)N[C@@H](CCCCN)C(=O)N[C@@H](Cc2ccc(O)cc2)C(=O)N2CCC[C@H]2C(=O)N[C@@H](Cc2c[nH]c3ccccc23)C(=O)N1)C(=O)O [W5F] | 579 nM | > 3000 nM | 1260 nM | – | – | – | – | –
6 | CC(C)C[C@H](NC(=O)[C@H](CC(=O)O)NC(=O)[C@H](Cc1ccc(O)cc1)NC(=O)[C@H](CCCNC(=N)N)NC(=O)[C@@H]1CSSC[C@@H]2NC(=O)[C@H](CCCCN)NC(=O)[C@H](CC(N)=O)NC(=O)[C@H](CC(N)=O)NC(=O)[C@H](CC(N)=O)NC(=O)[C@@H]3CCCN3C(=O)[C@H](CC(=O)O)NC(=O)[C@@H]3CSSC[C@H](NC(=O)[C@H](C(C)C)NC(=O)[C@H](Cc4ccc(O)cc4)NC(=O)CNC(=O)[C@H](CCC(=O)O)NC(=O)[C@H](CSSC[C@H](NC(=O)[C@H](CC(=O)O)NC(=O)CN)C(=O)N[C@@H](CC(C)C)C(=O)NCC(=O)N[C@@H](Cc4c[nH]c5ccccc45)C(=O)N[C@@H](Cc4ccccc4)C(=O)N[C@@H](CO)C(=O)NCC(=O)N3)NC2=O)C(=O)N[C@@H](Cc2c[nH]cn2)C(=O)N[C@@H](C)C(=O)N[C@@H](CCCCN)C(=O)N[C@@H](Cc2ccc(O)cc2)C(=O)N2CCC[C@H]2C(=O)N[C@@H](Cc2c[nH]c3ccccc23)C(=O)N1)C(=O)O [W24A] (H-GDCLGWFSGCDPNNNKCCEGYVCHAKYPWCRYDL-OH; disulfide 3-18, 10-23, 17-30 (inferred); N-terminus and C-terminus assumed) | > 1000 nM | > 1000 nM | > 1000 nM | ≥ 10 fold | ≥ 10 fold | – | – | –
7 | CC(C)C[C@H](NC(=O)[C@H](CC(=O)O)NC(=O)[C@H](Cc1ccc(O)cc1)NC(=O)[C@H](CCCNC(=N)N)NC(=O)[C@@H]1CSSC[C@@H]2NC(=O)[C@H](CCCCN)NC(=O)[C@H](CC(N)=O)NC(=O)[C@H](CC(N)=O)NC(=O)[C@H](CC(N)=O)NC(=O)[C@@H]3CCCN3C(=O)[C@H](CC(=O)O)NC(=O)[C@@H]3CSSC[C@H](NC(=O)[C@H](C(C)C)NC(=O)[C@H](Cc4ccc(O)cc4)NC(=O)CNC(=O)[C@H](CCC(=O)O)NC(=O)[C@H](CSSC[C@H](NC(=O)[C@H](CC(=O)O)NC(=O)CN)C(=O)N[C@@H](CC(C)C)C(=O)NCC(=O)N[C@@H](Cc4c[nH]c5ccccc45)C(=O)N[C@@H](Cc4ccccc4)C(=O)N[C@@H](CO)C(=O)NCC(=O)N3)NC2=O)C(=O)N[C@@H](Cc2c[nH]cn2)C(=O)N[C@@H](CCCNC(=N)N)C(=O)N[C@@H](CCCCN)C(=O)N[C@@H](Cc2ccc(O)cc2)C(=O)N2CCC[C@H]2C(=O)N[C@@H](Cc2c[nH]c3ccccc23)C(=O)N1)C(=O)O [W24R] | 423 nM | 1190 nM | > 3000 nM | – | – | ~65% | ~75% | ~50%
8 | CC(C)C[C@H](NC(=O)[C@H](CC(=O)O)NC(=O)[C@H](Cc1ccc(O)cc1)NC(=O)[C@H](CCCNC(=N)N)NC(=O)[C@@H]1CSSC[C@@H]2NC(=O)[C@H](CCCCN)NC(=O)[C@H](CC(N)=O)NC(=O)[C@H](CC(N)=O)NC(=O)[C@H](CC(N)=O)NC(=O)[C@@H]3CCCN3C(=O)[C@H](CC(=O)O)NC(=O)[C@@H]3CSSC[C@H](NC(=O)[C@H](C(C)C)NC(=O)[C@H](Cc4ccc(O)cc4)NC(=O)CNC(=O)[C@H](CCC(=O)O)NC(=O)[C@H](CSSC[C@H](NC(=O)[C@H](CC(=O)O)NC(=O)CN)C(=O)N[C@@H](CC(C)C)C(=O)NCC(=O)N[C@@H](Cc4c[nH]c5ccccc45)C(=O)N[C@@H](Cc4ccccc4)C(=O)N[C@@H](CO)C(=O)NCC(=O)N3)NC2=O)C(=O)N[C@@H](Cc2c[nH]cn2)C(=O)N[C@@H](CO)C(=O)N[C@@H](CCCCN)C(=O)N[C@@H](Cc2ccc(O)cc2)C(=O)N2CCC[C@H]2C(=O)N[C@@H](Cc2c[nH]c3ccccc23)C(=O)N1)C(=O)O [W24S] | 1460 nM | > 3000 nM | > 3000 nM | – | – | – | – | –
